From PMC10093836, “Stabilization of the Dimeric State of SARS-CoV-2 Main Protease by GC376 and Nirmatrelvir” (International Journal of Molecular Sciences, 2023)

How the values were obtained:
cells = test system: cells; set-up: method as in PMID 32841477; conditions: literature values; cited from earlier work
Mpro = conditions: read-out: IC50 for Mpro; literature data; cited from earlier work
[1] = molecular target: SARS-CoV-2 Mpro (Nsp5, 3CLpro) (Severe acute respiratory syndrome coronavirus 2, UniProt P0DTD1); assay: biochemical; format: binding; conditions: for Binding to Mpro (MST), in words: no binding curve produced
SARS-CoV-2 protease = molecular target: SARS-CoV-2 protease; set-up: method as in PMID 34726479, PMID 35233052, PMID 34653812; conditions: literature; read-out: Inhibition constant (Ki); cited from earlier work

For `CCCCCCNC(=O)n1cc(F)c(=O)[nH]c1=O` [Carmofur], which EC50 (cells) is on record?
Its EC50 is 24000 ± 3000 nM.

With `CC(C)C[C@H](NC(=O)OCc1ccccc1)C(=O)N[C@@H](CC1CCNC1=O)C(O)S(=O)(=O)O` (stereo partly shown) [GC376] as the compound, how does the IC50 (Mpro) read?
Its IC50 is 190 ± 40 nM.

With `Cc1cccc(C)c1OCC(=O)N[C@@H](Cc1ccccc1)[C@@H](O)C[C@H](Cc1ccccc1)NC(=O)[C@H](C(C)C)N1CCCNC1=O` [Lopinavir] as the compound, how does the Kd [1] read?
The Kd was > 200000 nM.

And the “Binding to Mpro (MST), in words” value [1]?
The value was “do not bind Mpro effectively”.

For `CC(C)(C)[C@H](NC(=O)C(F)(F)F)C(=O)N1C[C@H]2[C@@H]([C@H]1C(=O)N[C@H](C#N)C[C@@H]1CCNC1=O)C2(C)C` [NMV, Nirmatrelvir], which Ki (SARS-CoV-2 protease) is on record?
The Ki was 3 nM.

With `Cc1c(O)cccc1C(=O)N[C@@H](CSc1ccccc1)[C@H](O)CN1C[C@H]2CCCC[C@H]2C[C@H]1C(=O)NC(C)(C)C` [Nelfinavir] as the compound, how does the “Binding to Mpro (MST), in words” value [1] read?
Its value is “do not bind Mpro effectively”.

Which “Binding to Mpro (MST), in words” value [1] does the source give for `CC(C)c1nc(CN(C)C(=O)N[C@H](C(=O)N[C@@H](Cc2ccccc2)C[C@H](O)[C@H](Cc2ccccc2)NC(=O)OCc2cncs2)C(C)C)cs1` [RTV, ritonavir] here?
The value was “do not bind Mpro effectively”.
